Reference: article PMC10107299, “Neutralizing the Impact of the Virulence Factor LecA from Pseudomonas aeruginosa on Human Cells with New Glycomimetic Inhibitors” (Angewandte Chemie (International Ed. in English), 2023)

What was measured:
[1] = In vitro metabolic stability, mouse liver microsomes; type: in vitro ADME; details: N=3, read-out: CLint MLM
Method: (§1) Acetonitrile and caffeine were dispensed using a Mantis Formulatrix. Then samples were centrifuged for 20 min at 2.270 x g at 4 °C and the supernatants were transferred to 96-well Greiner V-bottom plates. Peak areas of each compound and of the internal standard were analyzed using the MultiQuant 3.0 software (AB Sciex). Peak areas of the respective compound were normalized to the internal standard peak area and to the respective peak areas at time point 0 min: (C/D)/(A/B) with A: peak area of the compound at time point 0 min, B: peak area of the internal standard at time point 0 min, C: peak area of the compound at the respective time point, D: peak area of the internal standard at the respective time point.
In vitro metabolic stability assay
Liver microsomes (mouse and human, Thermo Fisher) were thawed slowly on ice. 20 mg/mL of microsomes, 2 µL of a 100 µM solution of every compound and 183 µL of 100 mM phosphate buffer were incubated 5 min at 37 °C in a water bath. Reactions were initiated using 10 µL of 20 mM NADPH (CarlRoth). Samples were incubated in three replicates at 37 °C under gentle agitation at 150 rpm. At 0, 5, 15, 30, and 60 min, reactions were terminated by the addition of 180 µL acetonitrile using a Mantis Formulatrix dispenser. Samples were vortexed for 5 min using an Eppendorf MixMate vortex mixer and centrifuged at 2.270 x g for 20 min at 4 °C. The supernatants were transferred to 96-well Greiner V-bottom plates, sealed and analyzed according to the section HPLC-MS analysis. Peak areas of the respective time point of the compounds were normalized to the peak area at time point 0 min. Then half-life was calculated using linear regression (Microsoft Excel). Clint [µL/min/mg protein] was calculated using the following formula: […]

[2] = Plasma protein binding (rapid equilibrium device), murine plasma; type: in vitro ADME, mouse; details: CD-1, mouse, plasma, read-out: PPB Mouse (converted)
Method: as §1, with “mixer (Eppendorf). Acetonitrile” for “Acetonitrile”, “point. […]” for “point.”
Assessment of plasma protein binding
Plasma protein binding was assessed using the rapid equilibrium device (RED) system from ThermoFisher. Compounds were dissolved in DMSO. […]
high plasma protein binding. Compounds were diluted in murine plasma (from CD-1 mice, pooled) or in human plasma (human donors, both genders, pooled) to a final concentration of 1 µM. Dialysis buffer and plasma samples were added to the respective chambers according the manufacturer’s protocol. The RED plate was sealed with a tape and incubated at 37 °C for 2 hours at 800 rpm on an Eppendorf MixMate vortex-mixer. Then samples were withdrawn from the respective chambers. To 25 µL of each dialysis sample, 25 µL of plasma and to 25 µL of plasma sample, 25 µL of dialysis buffer was added. Then 150 µL ice-cold extraction solvent (ACN/H2O (90:10) containing 12.5 ng/mL caffeine as internal standard) was added. Samples were incubated for 30 min on ice. Then samples were centrifuged at 4 °C at 2270 x g for 10 min.
Supernatants were transferred to Greiner V-bottom 96-well plates and sealed with a tape. The […]
percentage of bound compound was calculated as follows:
(1) % free = (concentration buffer chamber / concentration plasma chamber) *100 […]
Samples were analyzed using an Agilent 1290 Infinity II HPLC system coupled to an AB Sciex QTrap 6500plus mass spectrometer. LC conditions were as follows: column: Agilent […]
Zorbax Eclipse Plus C18, 50x2.1 mm, 1.8 µm; temperature: 30 °C; injection volume: 5 µL per […]
sample; flow rate: 700 µL/min. Samples were run under acidic and buffered conditions.
Solvents for acidic conditions: A1: water + 0.1% formic acid; solvent B1: 95% acetonitrile/5% […]
H2O + 0.1% formic acid; solvents for buffered conditions: A2: 95% water + 5% acetonitrile + […]
5 mM ammonium acetate + 40 µL/L acetic acid; B2: 95% acetonitrile + 5% water + 5 mM […]
ammonium acetate + 40 µL/L acetic acid. The same gradient was applied for acidic and […]
buffered conditions: 99% A at 0 min, 99% A until 1 min, 99% - 0% A from 1 min to 4.0 min, […]
0% A until 5.0 min. Mass transitions for controls and compounds are depicted in the following […]

[3] = test system: H1299 cells; experiment: Cell proliferation (MTT) cytotoxicity assay; type: cell-based, human; details: 24 h; for Cytotoxicity on H1299 cells: 10–100 μM; for Inhibition of cell proliferation: 500 and 750 μM
Method: Additionally, the cytotoxicity of sulfonated ligands K2 and L2 on H1299 cells was evaluated prior to the invasion assay (Figure S12). […]
Cell proliferation (MTT) assay
The MTT assay (MTT Cell Proliferation Kit, Roche Holding AG, Basel, Switzerland) was used to evaluate the cytotoxicity of inhibitors on H1299 cells. 3.5 x 10^4 cells per well were transferred to a 96-well plate with a U-bottom. The cells were centrifuged at 1600 x g for 3 min at room temperature. The cell pellet was resuspended in 100 μL of inhibitor solutions (1–750 µM) and transferred to a 96-well flat-bottomed plate. The cells were incubated for 24 h at 37 °C.
Subsequently, 10 μL of MTT labelling solution was added to each well and the cells were incubated for another 4 h at 37 °C. Afterwards, 100 μL of the kit solubilization reagent were added to each well and the plate was incubated at 37 °C overnight. The next day, the absorbance of the samples was measured at 550 nm using a BioTek microplate reader (BioTek Instruments

Structure (SMILES) | microsomal CLint at 1 µM [1] [µL/min/mg] | fraction unbound at 2 h, 1 µM [2] | Cytotoxicity on H1299 cells [3] | Inhibition of cell proliferation [3] [%]
O=C(/C=C/c1ccc(O[C@@H]2O[C@H](CO)[C@H](O)[C@H](O)[C@H]2O)cc1)Nc1ccc(OCCOc2ccc(NC(=O)/C=C/c3ccc(O[C@@H]4O[C@H](CO)[C@H](O)[C@H](O)[C@H]4O)cc3)cc2)cc1 [Compound D1] | 22.4 | 0.006 |  | 
O=C(CCc1ccc(O[C@@H]2O[C@H](CO)[C@H](O)[C@H](O)[C@H]2O)cc1)Nc1ccc(OCCOc2ccc(NC(=O)CCc3ccc(O[C@@H]4O[C@H](CO)[C@H](O)[C@H](O)[C@H]4O)cc3)cc2)cc1 [Compound D2] | 29.6 |  |  | 
O=C(/C=C/c1ccc(O[C@@H]2O[C@H](CO)[C@H](O)[C@H](O)[C@H]2O)cc1)Nc1ccc(OCCOc2ccc(NC(=O)/C=C/c3ccc(O[C@@H]4O[C@H](CO)[C@H](O)[C@H](O)[C@H]4O)cc3)cn2)nc1 [Compound H1] | 17.5 |  |  | 
O=C(CCc1ccc(O[C@@H]2O[C@H](CO)[C@H](O)[C@H](O)[C@H]2O)cc1)Nc1ccc(OCCOc2ccc(NC(=O)CCc3ccc(O[C@@H]4O[C@H](CO)[C@H](O)[C@H](O)[C@H]4O)cc3)cn2)nc1 [Compound H2] | 6.8 | 0.03 |  | 
Cc1ccc(NC(=O)CCc2ccc(O[C@@H]3O[C@H](CO)[C@H](O)[C@H](O)[C@H]3O)cc2)cc1S(=O)(=O)O [Compound K2] |  |  | did not exhibit significant toxicity | > 50
O=C(CCc1ccc(O[C@@H]2O[C@H](CO)[C@H](O)[C@H](O)[C@H]2O)cc1)Nc1ccc(CCc2ccc(NC(=O)CCc3ccc(O[C@@H]4O[C@H](CO)[C@H](O)[C@H](O)[C@H]4O)cc3)cc2S(=O)(=O)O)c(S(=O)(=O)O)c1 [Compound L2] | 29.5 | 0.86 | did not exhibit significant toxicity | > 50
